The values that follow come from article PMC5104480 (PLoS ONE, 2016).

One may read the Km as the concentration of substrate that gives half-maximal velocity.

The target of data set [1] is T1, HLMs, UGT1A1, UGT1A6 and UGT1A9 (Homo sapiens, UniProt P22309).
T1 sequence (P22309 26-533): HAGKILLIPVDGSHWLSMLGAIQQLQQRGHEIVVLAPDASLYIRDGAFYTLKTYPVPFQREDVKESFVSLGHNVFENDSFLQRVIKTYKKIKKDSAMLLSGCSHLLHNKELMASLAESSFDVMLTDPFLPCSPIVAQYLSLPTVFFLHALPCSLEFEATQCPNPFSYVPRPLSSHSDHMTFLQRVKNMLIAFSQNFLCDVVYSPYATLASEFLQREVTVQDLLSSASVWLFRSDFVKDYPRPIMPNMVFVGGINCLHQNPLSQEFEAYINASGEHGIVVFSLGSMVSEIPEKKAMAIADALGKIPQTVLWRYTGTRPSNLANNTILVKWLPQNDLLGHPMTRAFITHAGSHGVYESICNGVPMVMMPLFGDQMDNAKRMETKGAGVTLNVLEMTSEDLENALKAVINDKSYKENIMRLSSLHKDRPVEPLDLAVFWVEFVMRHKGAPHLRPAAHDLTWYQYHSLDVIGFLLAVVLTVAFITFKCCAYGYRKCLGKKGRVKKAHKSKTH
The following applies: HLMs and UGT1A1; substrate chrysoeriol; compared with control. On the procedure:
(§1) The protein concentrations of the HLMs and expressed UGTs were 0.0021–0.0106 mg protein/mL. All of the incubations were run at 37°C for 30 min, and the way of pretreated and determined samples were as discribed above.

The next data set deals with A549 cells. The data set can be described thus: MTT assay, A549 cells, with and without Ko143. In kind it is cell-based. Here is the method:
The cells were further incubated at 37°C with 5% CO2 for 48 h. The culture medium was removed and replaced with 100 μL 0.5 mg/mL 3-(4, 5-dimethylthiozol-2-yl)-3, 5-dipheryl tetrazolium bromide (MTT) solution and incubated at 37°C for 4 h. The supernatants were discarded, and 150 μL of dimethyl sulfoxide was added to each well. The plates were shaken for 10 min at room temperature, and then, the stained formazan product was determined at 570 nm with a multimode plate reader.
On the technique in general: Tetrazolium dyes change colour on reduction, which living cells bring about.

A further data set relates to HepG2 cells. The experiment in a line: MTT assay, HepG2 cells, with and without Ko143. The data set is classed as cell-based. On the procedure:
The cells were further incubated at 37°C with 5% CO2 for 48 h. […] The supernatants were discarded, and 150 μL of dimethyl sulfoxide was added to each well. The plates were shaken for 10 min at room temperature, and then, the stained formazan product was determined at 570 nm with a multimode plate reader.

In the next data set the test system is HeLa cells. The experiment in a line: Glucuronide formation in HeLa cells (control). The following applies: HeLa cells without UGT1A9 (control).
The target of data set [2] is T2, HLMs, UGT1A1, UGT1A6 and UGT1A9 (Homo sapiens, UniProt O60656).
T2 sequence (O60656 26-530): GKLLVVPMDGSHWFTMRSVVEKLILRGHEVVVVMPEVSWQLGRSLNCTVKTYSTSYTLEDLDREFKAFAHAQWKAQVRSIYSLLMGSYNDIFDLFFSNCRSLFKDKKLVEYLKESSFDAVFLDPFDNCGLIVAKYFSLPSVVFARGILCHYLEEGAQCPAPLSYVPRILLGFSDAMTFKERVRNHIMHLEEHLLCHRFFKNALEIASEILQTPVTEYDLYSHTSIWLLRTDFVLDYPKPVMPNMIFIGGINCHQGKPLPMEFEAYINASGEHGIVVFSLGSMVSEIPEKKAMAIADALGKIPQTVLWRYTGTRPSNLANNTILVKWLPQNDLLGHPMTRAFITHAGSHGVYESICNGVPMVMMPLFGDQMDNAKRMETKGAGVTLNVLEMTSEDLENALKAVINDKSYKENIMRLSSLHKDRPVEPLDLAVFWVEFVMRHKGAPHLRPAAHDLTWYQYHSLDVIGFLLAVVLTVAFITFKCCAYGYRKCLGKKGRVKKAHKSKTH
To be noted: HLMs and UGT1A9, compared with control. Here is the method: as §1

The conditions of data set [3]: cited from earlier work.
[4] abbreviates: 10 μM substrate with 5 or 10 μM Ko143, 48 h.
The mark [5] stands for this setting: 10 μM substrate with 5 μM Ko143, 48 h.
Where [6] appears, read: 10 μM substrate with 10 μM Ko143, 48 h.

Method for HeLa cells: HeLa and HeLa—UGT1A9 cells were seeded into six-well plate at a density of 1.0 × 10^5 cells/well, and were grown using Dulbecco’s modified Eagle’smedium (DMEM) supplemented with 10% fetal bovine serum (FBS). After 3 ~ 4 days of seeding, the cells can be used for the glucuronidation experiments.
Brifely speaking, the cells were incubated at 37°C with loading solution (2 mL). […] The collected samples were mixed with 250 μL acetonitrile containing 25 nM tilianin and then analyzed by UHPLC—MS/MS after centrifugation at 13,000 rpm for 30 min. After the excretion experiment, the cells were washed and selected in 300 μL HBSS buffer, and then the cells were ultrasonicated. After centrifugation at 13,000 rpm for 30 min, the 200 μL supernatant was obtained and mixed with 100 μL acetonitrile containing 25 nM tilianin. The mixture was then centrifuged at 13,000 rpm for 30 min and prepared for subsequent UHPLC—MS/MS analysis.

Regarding `C=CC1=C(C)/C(=C/c2[nH]c(Cc3[nH]c(/C=C4\NC(=O)C(C)=C4C=C)c(C)c3CCC(=O)O)c(CCC(=O)O)c2C)NC1=O` [bilirubin], the “effect on formation of Chr-4′-G” value in data set [1] was “significantly decrease”.

Take `COc1ccc(-c2cc(=O)c3c(O)cc(O)cc3o2)cc1O` [diosmetin, 5,7,3′-trihydroxy-4′-methoxyflavone]: in the data set with A549 cells (setting [4]), the “change of cytotoxicity when treated with Ko143” value is reported as “little change”. In addition, the “decrease of cell viability compared with substrate alone” value with HepG2 cells (setting [5]) was 12%; with HepG2 cells (setting [6]), 13%.

As to `COc1cc(-c2cc(=O)c3c(O)cc(O)cc3o2)ccc1O` [chrysoeriol, 5,7,4′-trihydroxy-3′-methoxyflavone], the “decrease of cell viability compared with substrate alone” value in the data set with A549 cells (setting [5]) turned out to be 12%; in the data set with A549 cells (setting [6]), 18%. Besides, the “change of cytotoxicity when treated with Ko143” value in the data set on HepG2 cells (setting [4]) is “little change”. The “glucuronided metabolites in HeLa cells” value in the data set on HeLa cells is “did not find”.

`Cc1ccc(C(C)C)cc1O` [carvacrol]: in data set [2] (substrate chrysoeriol), the “effect on formation of Chr-7-G” value is “significantly decrease”. Moreover, the “effect on formation of Dio-3′-G” value in data set [2] (substrate diosmetin) is “significantly decrease”.

As to genistein glucuronides, in data set [3], the Km was 15.1 µM.

Consider acacetin glucuronide, for which the Km in data set [3] is 14.5 µM.
